Source: ChEMBL document CHEMBL1139071, “Diastereoselective synthesis of glycosylated prolines as alpha-glucosidase inhibitors and organocatalyst in asymmetric aldol reaction” (Bioorg Med Chem Lett, 2007)

How the values were obtained:
[1] = organism: Rattus norvegicus; experiment: Inhibition of rat intestinal alpha-glucosidase at 100 uM
[2] = Inhibition of rat intestinal alpha-glucosidase

inhibition [1] [%] | IC50 [2] [µM] | Ki [2] [µM] | Compound
82.7 | 61 | 33 | CCOC(=O)[C@H]1[C@H]([C@@H]2O[C@@H]3OC(C)(C)O[C@@H]3[C@H]2OCc2ccccc2)[C@@H](C(=O)OCC)N[C@H]1c1cccc([N+](=O)[O-])c1
39 |  |  | C[C@H]1O[C@H](O[C@H]2[C@H](O)[C@@H](O)[C@@H](O[C@H]3[C@H](O)[C@@H](O)C(O)O[C@@H]3CO)O[C@@H]2CO)[C@H](O)[C@@H](O)[C@@H]1N[C@H]1C=C(CO)[C@@H](O)[C@H](O)[C@H]1O (stereo partly drawn)
65.5 | 96 | 79 | CCOC(=O)[C@H]1[C@H](C2O[C@@H]3OC(C)(C)O[C@@H]3[C@H]2OCc2ccccc2)[C@@H](C(=O)OCC)N[C@H]1c1cccc(Cl)c1 (single isomer, unassigned)
79.3 | 64 | 36 | CCOC(=O)[C@H]1[C@H](C2O[C@@H]3OC(C)(C)O[C@@H]3[C@H]2OCc2ccccc2)[C@@H](C(=O)OCC)N[C@H]1c1ccc(Br)cc1 (single isomer, unassigned)
67.2 | 99 | 65 | CCOC(=O)[C@H]1[C@H](C2O[C@@H]3OC(C)(C)O[C@@H]3[C@H]2OCc2ccccc2)[C@@H](C(=O)OCC)N[C@H]1c1cc(Cl)ccc1Cl (single isomer, unassigned)
43.1 | 75 | 40 | CCOC(=O)[C@H]1[C@H](C2O[C@@H]3OC(C)(C)O[C@@H]3[C@H]2OCc2ccccc2)[C@@H](C(=O)OCC)N[C@H]1c1ccc(F)cc1 (single isomer, unassigned)
26.8 |  |  | CCOC(=O)[C@H]1[C@H](C2O[C@@H]3OC(C)(C)O[C@@H]3[C@H]2OC)[C@@H](C(=O)OCC)N[C@H]1c1ccc(Br)cc1 (single isomer, unassigned)
10.5 |  |  | CCOC(=O)[C@H]1[C@H](C2O[C@@H]3OC(C)(C)O[C@@H]3[C@H]2OCc2ccccc2)[C@@H](C(=O)O)N[C@H]1c1cc(Cl)ccc1Cl (single isomer, unassigned)
8.1 |  |  | CCOC(=O)[C@H]1[C@H](C2O[C@@H]3OC(C)(C)O[C@@H]3[C@H]2OCc2ccccc2)[C@@H](C(=O)O)N[C@H]1c1ccc(Br)cc1 (single isomer, unassigned)
24.1 |  |  | CCOC(=O)[C@H]1[C@H](C2O[C@@H]3OC(C)(C)O[C@@H]3[C@H]2OCc2ccccc2)[C@@H](C(=O)O)N[C@H]1c1cccc(Cl)c1 (single isomer, unassigned)
10.3 |  |  | CCOC(=O)[C@H]1[C@H](C2O[C@@H]3OC(C)(C)O[C@@H]3[C@H]2OCc2ccccc2)[C@@H](C(=O)O)N[C@H]1c1cccc([N+](=O)[O-])c1 (single isomer, unassigned)
5.1 |  |  | CCOC(=O)[C@H]1[C@H](C2O[C@@H]3OC(C)(C)O[C@@H]3[C@H]2OCc2ccccc2)[C@@H](C(=O)O)N[C@H]1c1cccnc1 (single isomer, unassigned)
29.3 |  |  | CCOC(=O)[C@H]1[C@H](C2O[C@@H]3OC(C)(C)O[C@@H]3[C@H]2OCc2ccccc2)[C@@H](C(=O)OCC)N[C@H]1c1cccnc1 (single isomer, unassigned)
